Drawing on PubChem BioAssay AID493062 (The Scripps Research Institute Molecular Screening Center, 2011), this text covers EC50 for 60 compounds.

For test [1], the system named is 2B4/BCL-2. The experiment in a line: MCL-1-selective apoptosis induction in 2B4 cells – cell-based, fluorescence, assay provider data, selectivity assay for MCL1-BIM inhibitor project, late-stage follow-up (AID 493062). The conditions noted are these: 2B4/MCL-1 caspase activation fluorescence.
In test [2] the test system is 2B4/MCL-1. Described as above. The conditions noted are these: 2B4/MCL-1 caspase activation fluorescence.

For the compound `Cc1nnc(NC(=O)c2cc(-c3ccco3)nc3ccccc23)s1`, the EC50 in test [1] and in test [2] was greater than 25 µM in each case.

Regarding `CCN(CC)C(=O)COc1ccc2c(-c3ccc(OC)cc3)cc(=O)oc2c1`, the EC50 in test [1] and in test [2] was greater than 25 µM in each case.

`CC(=O)c1cccc(NC(=O)c2cc(-c3ccco3)nc3ccccc23)c1`: the EC50 in test [1] and in test [2] was greater than 25 µM each time.

As for `CCc1nnc(NC(=O)c2cc(-c3ccco3)nc3ccccc23)s1`, the EC50 in test [1] and in test [2] was greater than 25 µM each time.

With `CCCCN(C(=O)c1cc(-c2ccco2)nc2ccccc12)c1c(N)n(CCCC)c(=O)[nH]c1=O`, the EC50 in test [1] and in test [2] was greater than 25 µM throughout.

Take `Cc1ccc(NC(=O)c2cc(-c3ccc(C)o3)nc3ccccc23)cc1`: the EC50 in test [1] and in test [2] was greater than 25 µM in each case.

Turning to `Cc1ccc(-c2cc(C(=O)NCCN3CCOCC3)c3ccccc3n2)o1`, the EC50 in test [1] and in test [2] was greater than 25 µM in each case.

For the compound `COc1ccc(Cc2nnc(NC(=O)Cc3cccs3)s2)cc1OC`, the EC50 in test [1] and in test [2] was greater than 25 µM each time.

On to `COc1ccc(Cc2nnc(NC(=O)CCc3cccs3)s2)cc1OC`, for which the EC50 in test [1] and in test [2] was greater than 25 µM each time.

Take `CCN(CC)CCNC(=O)c1cc(-c2ccco2)nc2ccccc12`: the EC50 in test [1] and in test [2] was greater than 25 µM in each case.

Regarding `COc1ccc(Cc2nnc(NC(=O)Cc3ccc(Oc4ccccc4)cc3)s2)cc1OC`, the EC50 (in general, the concentration that produces a half-maximal response) in test [1] was 3.6 µM; in test [2] it was 4 µM.

Regarding `Cc1ccc(-c2cc(C(=O)Nc3cccnc3)c3ccccc3n2)o1`, the EC50 in test [1] and in test [2] was greater than 25 µM each time.

In the case of `CC(C)CCNC(=O)c1cc(-c2ccco2)nc2ccccc12`, the EC50 in test [1] and in test [2] was greater than 25 µM each time.

Consider `O=C(NC(=S)Nc1cccc(S(=O)(=O)NC2=NCCC2)c1)c1cc(-c2ccco2)nc2ccccc12`, for which the EC50 in test [1] and in test [2] was greater than 25 µM throughout.

Take `COc1ccccc1CC(=O)Nc1nnc(Cc2ccc(OC)c(OC)c2)s1`: the EC50 in test [1] and in test [2] was greater than 25 µM in each case.

In the case of `O=C(Nc1nc2ccccc2s1)c1cc(-c2ccco2)nc2ccccc12`, the half-maximal effective concentration (EC50) in test [1] and in test [2] was greater than 25 µM throughout.

Consider `CC1CCCN(C(=O)c2cc(-c3ccco3)nc3ccccc23)C1` (stereo not given), for which the EC50 in test [1] and in test [2] was greater than 25 µM in each case.

In the case of `O=C(Nc1ccccc1N1CCOCC1)c1cc(-c2ccco2)nc2ccccc12`, the EC50 in test [1] and in test [2] was greater than 25 µM in each case.

For the compound `COc1ccc(Cc2nnc(NC(=O)C3(c4ccccc4)CC3)s2)cc1OC`, the EC50 in test [1] and in test [2] was greater than 25 µM in each case.

Turning to `COc1ccc(Cc2nnc(NC(=O)CCc3ccco3)s2)cc1OC`, the EC50 in test [1] was found to be 1.5 µM; in test [2], 0.8 µM.

With `COc1ccc(Cc2nnc(NC(=O)Cc3csc4ccccc34)s2)cc1OC`, the EC50 in test [1] and in test [2] was greater than 25 µM throughout.

As for `CN(CC(=O)Nc1cccc(F)c1)C(=O)c1cc(-c2ccco2)nc2ccccc12`, the EC50 in test [1] and in test [2] was greater than 25 µM each time.

In the case of `Cc1ccc(-c2cc(C(=O)N(C)CC(=O)Nc3ccccc3Br)c3ccccc3n2)o1`, the EC50 in test [1] and in test [2] was greater than 25 µM in each case.

With `O=C(Nc1cccc(F)c1)c1cc(-c2ccco2)nc2ccccc12`, the EC50 in test [1] and in test [2] was greater than 25 µM throughout.

As for `COc1cccc(NC(=O)CN(C)C(=O)c2cc(-c3ccco3)nc3ccccc23)c1`, the EC50 in test [1] and in test [2] was greater than 25 µM each time.

For `Cc1ccc(-c2cc(C(=O)Nc3ccccn3)c3ccccc3n2)o1`, the EC50 in test [1] and in test [2] was greater than 25 µM each time.

For the compound `CCCCn1c(N)c(N(CCC(C)C)C(=O)c2cc(-c3ccco3)nc3ccccc23)c(=O)[nH]c1=O`, the EC50 in test [1] and in test [2] was greater than 25 µM in each case.

As for `Cc1ccc(-c2cc(C(=O)NCCCn3ccnc3)c3cc(Br)ccc3n2)o1`, the EC50 in test [1] and in test [2] was greater than 25 µM throughout.

For `Cc1cccc(NC(=O)c2cc(-c3ccc(C)o3)nc3ccccc23)n1`, the EC50 in test [1] amounted to 25 µM; in test [2] it was 40 µM.

Consider `CCCCn1c(N)c(N(CC(C)C)C(=O)c2cc(-c3ccco3)nc3ccccc23)c(=O)[nH]c1=O`, for which the EC50 in test [1] and in test [2] was greater than 25 µM each time.

Take `O=C(Nc1nncs1)c1cc(-c2ccco2)nc2ccccc12`: the EC50 in test [1] and in test [2] was greater than 25 µM each time.

As for `Cc1ccc(-c2cc(C(=O)Nc3nccs3)c3ccccc3n2)o1`, the EC50 in test [1] and in test [2] was greater than 25 µM each time.

As for `COc1ccc(Cc2nnc(NC(=O)C(F)c3ccccc3)s2)cc1OC` (stereo not given), the EC50 in test [1] and in test [2] was greater than 25 µM in each case.

With `CC(=O)N1CCN(C(=O)c2cc(-c3ccc(C)o3)nc3ccccc23)CC1`, the EC50 in test [1] and in test [2] was greater than 25 µM each time.

For `COc1ccc(Cc2nnc(NC(=O)Cc3ccc(-c4ccccc4)cc3)s2)cc1OC`, the EC50 in test [1] and in test [2] was greater than 25 µM each time.

Take `Cc1cccc(NC(=O)c2cc(-c3ccco3)nc3ccc(Br)cc23)n1`: the EC50 in test [1] was 0.6 µM; in test [2] it was 25 µM.

`O=C(Nc1ccccn1)c1cc(-c2ccco2)nc2ccc(Br)cc12`: the EC50 was 3 µM in test [1] and greater than 25 µM in test [2].

For the compound `COc1ccc(Cc2nnc(NC(=O)C(=O)c3ccco3)s2)cc1OC`, the EC50 in test [1] and in test [2] was greater than 25 µM each time.

In the case of `COc1ccc(Cc2nnc(NC(=O)Cc3ccsc3)s2)cc1OC`, the 50% effective concentration (EC50) in test [1] and in test [2] was greater than 25 µM in each case.

Take `COc1ccc(NC(=O)CN(C)C(=O)c2cc(-c3ccc(C)o3)nc3ccccc23)cc1`: the EC50 in test [1] and in test [2] was greater than 25 µM in each case.

For the compound `CN(CC(=O)Nc1ccc(F)cc1)C(=O)c1cc(-c2ccco2)nc2ccccc12`, the EC50 in test [1] and in test [2] was greater than 25 µM each time.

For `CN(CCOc1ccc(Cl)cc1)C(=O)c1cc(-c2ccco2)nc2ccccc12`, the EC50 in test [1] and in test [2] was greater than 25 µM throughout.

As for `COCCN(C(=O)c1cc(-c2ccco2)nc2ccccc12)c1c(N)n(Cc2ccccc2)c(=O)[nH]c1=O`, the EC50 in test [1] and in test [2] was greater than 25 µM throughout.

Take `O=C(Nc1cccc(S(=O)(=O)NC2=NCCC2)c1)c1cc(-c2ccco2)nc2ccccc12`: the EC50 in test [1] and in test [2] was greater than 25 µM in each case.

Regarding `Cc1ccc(NC(=O)c2cc(-c3ccco3)nc3ccccc23)cc1S(=O)(=O)N1CCOCC1`, the EC50 in test [1] and in test [2] was greater than 25 µM throughout.

In the case of `Cc1ccc(-c2cc(C(=O)N3CCCC(C(F)(F)F)C3)c3ccccc3n2)o1` (stereo not given), the EC50 in test [1] and in test [2] was greater than 25 µM throughout.

Turning to `COCCCN(C(=O)c1cc(-c2ccco2)nc2ccccc12)c1c(N)n(Cc2ccccc2)c(=O)[nH]c1=O`, the EC50 in test [1] and in test [2] was greater than 25 µM each time.

On to `Cc1ccc(-c2cc(C(=O)N3CCN(c4ccccc4O)CC3)c3ccccc3n2)o1`, for which the EC50 in test [1] and in test [2] was greater than 25 µM each time.

Regarding `O=C(NCC1CCCO1)c1cc(-c2ccco2)nc2ccccc12` (stereo not given), the concentration giving a half-maximal response (EC50) in test [1] and in test [2] was greater than 25 µM each time.

Consider `O=C(NC1CCC(O)CC1)c1cc(-c2ccco2)nc2ccccc12` (stereo not given), for which the EC50 in test [1] and in test [2] was greater than 25 µM each time.

Consider `COc1ccc(NC(=O)c2cc(-c3ccco3)nc3ccccc23)cn1`, for which the EC50 in test [1] and in test [2] was greater than 25 µM throughout.

As for `COc1ccc(CC(=O)Nc2nnc(Cc3ccc(OC)c(OC)c3)s2)cc1`, the concentration for a half-maximal effect (EC50) in test [1] and in test [2] was greater than 25 µM each time.

As to `COc1ccc(NC(=O)c2cc(-c3ccco3)nc3ccccc23)cc1`, the concentration giving a half-maximal response (EC50) in test [1] and in test [2] was greater than 25 µM in each case.

Consider `O=C(c1cc(-c2ccco2)nc2ccccc12)N1CCCC(C(F)(F)F)C1` (stereo not given), for which the EC50 in test [1] and in test [2] was greater than 25 µM in each case.

With `O=C(Nc1cccnc1)c1cc(-c2ccco2)nc2ccc(Br)cc12`, the 50% effective concentration (EC50) is greater than 25 µM in test [1] and 10 µM in test [2].

For `O=C(Nc1cccc(S(=O)(=O)NC2=NCCCCC2)c1)c1cc(-c2ccco2)nc2ccccc12`, the EC50 in test [1] and in test [2] was greater than 25 µM in each case.

As for `O=C(c1cc(-c2ccco2)nc2ccccc12)N(Cc1nnc(-c2ccc(Cl)cc2)o1)C1CC1`, the EC50 in test [1] and in test [2] was greater than 25 µM each time.

`Cc1ccc(-c2cc(C(=O)N3CC(C)CC(C)C3)c3ccccc3n2)o1` (stereo not given): the EC50 in test [1] and in test [2] was greater than 25 µM throughout.

As for `CCOC(=O)c1cc(-c2ccco2)nc2c1c(C)nn2-c1ccccc1`, the EC50 in test [1] and in test [2] was greater than 25 µM each time.

With `COc1ccc(Cc2nnc(NC(=O)Cc3ccccn3)s2)cc1OC`, the EC50 in test [1] and in test [2] was greater than 25 µM each time.
